According to patent publication US10874743B2, “IRAK degraders and uses thereof” (Kymera Therapeutics, Inc., priority 2017, dated 2020):

Target: T1, IRAK4 (Homo sapiens, UniProt Q9NWZ3)
T1 sequence (Q9NWZ3 1-460): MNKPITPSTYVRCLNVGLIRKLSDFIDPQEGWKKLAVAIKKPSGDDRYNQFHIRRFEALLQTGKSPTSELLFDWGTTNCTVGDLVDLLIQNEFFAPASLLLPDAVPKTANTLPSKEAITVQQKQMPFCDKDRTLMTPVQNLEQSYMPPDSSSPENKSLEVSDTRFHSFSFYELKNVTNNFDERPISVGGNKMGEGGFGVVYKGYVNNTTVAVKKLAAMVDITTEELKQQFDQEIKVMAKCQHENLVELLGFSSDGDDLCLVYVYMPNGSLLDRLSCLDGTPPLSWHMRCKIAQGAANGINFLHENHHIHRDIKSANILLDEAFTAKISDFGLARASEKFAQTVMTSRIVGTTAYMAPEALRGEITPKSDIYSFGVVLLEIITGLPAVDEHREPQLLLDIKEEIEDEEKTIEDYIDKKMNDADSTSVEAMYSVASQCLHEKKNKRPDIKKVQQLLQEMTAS
Test: OCI-LY-10 MSD assay for IRAK4 DC50
Type: cell-based
Parameters: endogenous in cells; host or cells: OCI-LY10
Details: OCI-LY10 cells, 4 hr incubation, concentration required to degrade 50% of protein
Procedure: A MSD assay was run to determine the concentration of compound required to degrade 50% of protein (DC50).
Day 1 • Compounds were reconstituted to 10 mM in stock solutions. The stock solutions were diluted to 5 mM and 45 μL of each dilution was transferred to a 384 pp-plate. A 3 fold, 8-point serial dilution was performed by transferring 15 μL of compound into 30 μL DMSO using Janus. • 20 nL of each compounds were added into each well of a 96-well plate (Corning3799). • OCI-Ly10 cells were seeded into the 96-well plate at 3.0*10e^5 cells/100 μL/well. • The cell plate was shaken at 720 rpm for 5 min and incubated for 4 hr. • The 100 μL of cells were transferred into the 96-PCR plate and spun down at high speed for 5 mins. • The supernatant was discarded and 100 μL of RIPA lysis buffer with proteinase inhibitors was added per well. The plate was then sealed and shaken at 600 rpm and 4° C. for about 20 min. • The plate was then spun down at high speed (about 3200 g) for 30 min and then frozen in a −80° C. fridge. • A bare MSD plate (L15XA-3) was coated with 2 μg/mL of capture antibody (mouse Anti-IRAK4 antibody [2H9], ab119942) in PBS to 40 μL/well and incubated overnight at 4° C.
Day 2 • The MSD coated plate was washed 3× (150 μL/well) with 1×TBST (CST #9997S). • The MSD plate was then blocked with 150 μL of blocking buffer [3% Blocker A (MSD, R93BA-4) in TBST]/well and shaken for 1 hr at R^† and 600 rpm. • The MSD plate was washed 3× (150 μL/well) with 1×TBST. The sample RIPA lysates were then added to the MSD plate (50 μL/well) and shaken for 1 hr at R^† and 600 rpm. • The MSD plate was washed 3× (150 μL/well) with 1×TBST and the primary detection antibody (Rabbit Anti-IRAK4 antibody [Y279], ab32511) was added to a final concentration of 1 μg/ml with 25 μL/well. The plate was then shaken for 1 hr at RT and 600 rpm. • The MSD plate was washed 3× (150 μL/well) with 1×TBST and the secondary detection antibody, SULFO-TAG anti-species antibody (Anti Rabbit Antibody (R32AB-5) MSD, R32AB-1) was added to a volume of 25 μL/well at a final concentration of 1 jag/ml. The plate was then shaken for 1 hr at RT and 600 rpm. • The MSD plate was then washed 3× (150 μL/well) with 1×TBST. • lx MSD reading buffer was then added (150 μL/well) and the plate was diluted with 4× water. (MSD, R92TC-2) • The MSD instrument was then read.
Data Analysis • The remaining activity was calculated following the formula below:
Calculate • The DC50 was calculated by fitting the Curve using Xlfit (v5.3.1.3), equation 201: Y=Bottom+(Top−Bottom)/(1+10^((Log IC50−X)*HillSlope))
OCI-LY-10 DC50 results. The letter codes for IRAK4 DC50 indicate the concentration of compound required to degrade 50% of protein: A (<0.05 μM), B (0.05-0.1 μM), C (0.1-0.5 μM), D (0.5-1.0 μM), and E (>1.0 μM).

Question: How did the DC50 turn out when `Cn1c(=O)n(C2CCC(=O)NC2=O)c2cccc(CCCOCC(C)(C)COCCCNCc3ccc(-n4cc(NC(=O)c5coc(-c6ccnc(NCC7CC7)c6)n5)c(C(F)F)n4)cc3)c21` (stereo not drawn) [I-419] was run?
Answer: Its DC50 is 0.1 to 0.5 µM.

Question: Which DC50 does the source give for `Cn1c(=O)n(C2CCC(=O)NC2=O)c2ccc(CCCOCCC(=O)N3CCN(C4CCC(Nc5ncnn6ccc(C7CCOCC7)c56)CC4)CC3)cc21` (stereo not drawn) [I-437, 3-[3-Methyl-2-oxo-5-[3-[3-oxo-3-[4-[4-[(5-tetrahydropyran-4-ylpyrrolo[2,1-f][1,2,4]triazin-4-yl)amino]cyclohexyl]piperazin-1-yl]propoxy]propyl]benzimidazol-1-yl]piperidine-2,6-dione] here?
Answer: Its DC50 is over 1 µM.

Question: For `Cn1c(=O)n(C2CCC(=O)NC2=O)c2cccc(CCCOCCOCCOCCOCC(=O)N3CCN(C4CCC(Nc5ncnc6[nH]cc(C7CCOCC7)c56)CC4)CC3)c21` (stereo not drawn) [I-444, 3-[3-Methyl-2-oxo-4-[3-[2-[2-[2-[2-oxo-2-[4-[4-[(5-tetrahydropyran-4-yl-7H-pyrrolo[2,3-d]pyrimidin-4-yl)amino]cyclohexyl]piperazin-1-yl]ethoxy]ethoxy]ethoxy]ethoxy]propyl]benzimidazol-1-yl]piperidine-2,6-dione], which DC50 is on record?
Answer: The DC50 was 0.05 to 0.1 µM.

Question: For `Cn1cc(NC(=O)c2cocn2)c(C(=O)NCCOCCOCCOCCNc2cccc3c2C(=O)N(C2CCC(=O)NC2=O)C3=O)n1` (stereo not drawn) [I-300], which DC50 is on record?
Answer: Its DC50 is over 1 µM.

Question: How did the DC50 turn out when `Cn1c(=O)n(C2CCC(=O)NC2=O)c2ccc(CCCCOCCCCNCc3ccc(-n4cc(NC(=O)c5coc(-c6ccnc(NCC7CC7)c6)n5)c(C(F)F)n4)cc3)cc21` (stereo not drawn) [I-411, 2-[2-(cyclopropylmethylamino)-4-pyridyl]-N-[3-(difluoromethyl)-1-[4-[[4-[4-[1-(2,6-dioxo-3-piperidyl)-3-methyl-2-oxo-benzimidazol-5-yl]butoxy]butylamino]methyl]phenyl]pyrazol-4-yl]oxazole-4-carboxamide] was run?
Answer: Its DC50 is under 0.05 µM.

Question: With `NC(=O)c1nn(-c2ccc(CNCCCOCCCOCCCNc3cccc4c3C(=O)N(C3CCC(=O)NC3=O)C4=O)cc2)cc1NC(=O)c1coc(-c2ccnc(NCC3CC3)c2)n1` (stereo not drawn) [I-398] as the compound, how does the DC50 read?
Answer: Its DC50 is 0.1 to 0.5 µM.

Question: For `NC(=O)c1nn(-c2ccc(CNCCCOCCCNc3cccc4c3C(=O)N(C3CCC(=O)NC3=O)C4=O)cc2)cc1NC(=O)c1coc(-c2ccnc(NCC3CC3)c2)n1` (stereo not drawn) [I-399], which DC50 is on record?
Answer: Its DC50 is under 0.05 µM.

Question: `Cn1c(=O)n(C2CCC(=O)NC2=O)c2ccc(CCCCOCCCCNCc3ccc(-n4cc(NC(=O)c5cnn6ccc(N7CCNCC7)nc56)c(C(F)F)n4)cc3)cc21` (stereo not drawn) [I-441, N-[3-(difluoromethyl)-1-[4-[[4-[4-[1-(2,6-dioxo-3-piperidyl)-3-methyl-2-oxo-benzimidazol-5-yl]butoxy]butylamino]methyl]phenyl]pyrazol-4-yl]-5-piperazin-1-yl-pyrazolo[1,5-a]pyrimidine-3-carboxamide] was tested. Which DC50 did it give?
Answer: Its DC50 is over 1 µM.

Question: Which DC50 does the source give for `O=C1CCC(N2C(=O)c3ccc(NC4CCN(CCOCCNC(=O)c5ccc(-n6cc(NC(=O)c7coc(-c8ccnc(NCC9CC9)c8)n7)c(C(F)F)n6)cc5)CC4)cc3C2=O)C(=O)N1` (stereo not drawn) [I-271] here?
Answer: The DC50 was 0.1 to 0.5 µM.

Question: For `COCC(=O)N[C@H](C(=O)N1Cc2cc(OCCOCCOCCOCCNCc3ccc(-n4cc(NC(=O)c5coc(-c6ccnc(NCC7CC7)c6)n5)c(C(F)F)n4)cc3)ccc2CC1C(=O)N[C@@H]1CCCc2ccccc21)C(C)(C)C` (stereo partly drawn) [I-417], which DC50 is on record?
Answer: The DC50 was over 1 µM.

Question: How did the DC50 turn out when `CC(NCCOCCOCCCc1cccc2c1n(C)c(=O)n2C1CCC(=O)NC1=O)c1ccc(-n2cc(NC(=O)c3coc(-c4ccnc(NCC5CC5)c4)n3)c(C(F)F)n2)cc1` (stereo not drawn) [I-401] was run?
Answer: The DC50 was under 0.05 µM.

Question: `O=C1CCC(N2C(=O)c3cccc(N4CCN(CCOCCNC(=O)c5ccc(-n6cc(NC(=O)c7coc(-c8ccnc(NCC9CC9)c8)n7)c(C(F)F)n6)cc5)CC4)c3C2=O)C(=O)N1` (stereo not drawn) [I-274] was tested. Which DC50 did it give?
Answer: Its DC50 is 0.1 to 0.5 µM.

Question: Which DC50 does the source give for `Cn1cc(NC(=O)c2coc(-c3ccnc(NCC(F)(F)F)c3)n2)c(CNCCOCCOCCOCCNc2cccc3c2C(=O)N(C2CCC(=O)NC2=O)C3=O)n1` (stereo not drawn) [I-408] here?
Answer: The DC50 was over 1 µM.

Question: For `O=C1CCC(N2C(=O)c3cccc(NC4CCN(CCOCCNC(=O)c5ccc(-n6cc(NC(=O)c7coc(-c8ccnc(NCC9CC9)c8)n7)c(C(F)F)n6)cc5)CC4)c3C2=O)C(=O)N1` (stereo not drawn) [I-268], which DC50 is on record?
Answer: Its DC50 is under 0.05 µM.

Question: Which DC50 does the source give for `Cn1c(=O)n(C2CCC(=O)NC2=O)c2cccc(CCCOCCOCCNC3(c4ccc(-n5cc(NC(=O)c6coc(-c7ccnc(NCC8CC8)c7)n6)c(C(F)F)n5)cc4)CC3)c21` (stereo not drawn) [I-403] here?
Answer: The DC50 was 0.05 to 0.1 µM.

Question: Which DC50 does the source give for `COCC(=O)N[C@H](C(=O)N1Cc2cc(OCCOCCOCCOCCOCCNC(=O)c3ccc(-n4cc(NC(=O)c5coc(-c6ccnc(NCC7CC7)c6)n5)c(C(F)F)n4)cc3)ccc2CC1C(=O)N[C@@H]1CCCc2ccccc21)C(C)(C)C` (stereo partly drawn) [I-296] here?
Answer: The DC50 was over 1 µM.

Question: For `Cc1ncsc1-c1ccc(CNC(=O)[C@@H]2C[C@@H](O)CN2C(=O)[C@@H](NCCOCCOCCOCCNCc2ccc(-n3cc(NC(=O)c4coc(-c5ccnc(NCC(F)(F)F)c5)n4)c(C(N)=O)n3)cc2)C(C)(C)C)cc1` [I-415], which DC50 is on record?
Answer: The DC50 was over 1 µM.

Question: How did the DC50 turn out when `O=C1CCC(N2C(=O)c3cccc(NCCCCNCCCNC(=O)c4ccc(-n5cc(NC(=O)c6coc(-c7ccnc(NCC8CC8)c7)n6)c(C(F)(F)F)n5)cc4)c3C2=O)C(=O)N1` (stereo not drawn) [I-218] was run?
Answer: Its DC50 is over 1 µM.

Question: With `Cn1c(=O)n(C2CCC(=O)NC2=O)c2cccc(CCCOCCOCCNC(=O)c3ccc(-n4cc(NC(=O)c5coc(-c6ccnc(NCC7CC7)c6)n5)c(C(F)F)n4)cc3)c21` (stereo not drawn) [I-253] as the compound, how does the DC50 read?
Answer: Its DC50 is under 0.05 µM.

Question: For `Cc1ncsc1-c1ccc(CNC(=O)[C@@H]2C[C@@H](O)CN2C(=O)[C@@H](NCCOCCOCCOCCNC(=O)c2nn(C)cc2NC(=O)c2coc(-c3ccnc(NCC(F)(F)F)c3)n2)C(C)(C)C)cc1` [I-295], which DC50 is on record?
Answer: Its DC50 is over 1 µM.

Question: Which DC50 does the source give for `Cc1ncsc1-c1ccc(CNC(=O)[C@@H]2C[C@@H](O)CN2C(=O)[C@@H](NC(=O)COCCOCCOCCOCCNC(=O)c2nn(C)cc2NC(=O)c2coc(-c3ccnc(NCC(F)(F)F)c3)n2)C(C)(C)C)cc1` [I-299] here?
Answer: The DC50 was over 1 µM.

Question: How did the DC50 turn out when `O=C1CCC(N2C(=O)c3cccc(NCCOCCOCCNCc4ccc(-n5cc(NC(=O)c6coc(-c7ccnc(NCC(F)(F)F)c7)n6)c(CCCO)n5)cc4)c3C2=O)C(=O)N1` (stereo not drawn) [I-402] was run?
Answer: The DC50 was over 1 µM.

Question: With `CNC(=O)c1nn(-c2ccc(CNCCOCCOCCNc3cccc4c3C(=O)N(C3CCC(=O)NC3=O)C4=O)cc2)cc1NC(=O)c1coc(-c2ccnc(NCC(F)(F)F)c2)n1` (stereo not drawn) [I-400] as the compound, how does the DC50 read?
Answer: The DC50 was under 0.05 µM.

Question: How did the DC50 turn out when `O=C1CCC(N2C(=O)c3cccc(NCCOCCOCCOCC(=O)N4C[C@H](OC(=O)[C@@H]5CCCN5)C[C@H]4C(=O)NCc4ccc(-n5cc(NC(=O)c6coc(-c7ccnc(NCC8CC8)c7)n6)c(C(F)F)n5)cc4)c3C2=O)C(=O)N1` (stereo partly drawn) [I-289] was run?
Answer: The DC50 was over 1 µM.

Question: For `Cn1cc(NC(=O)c2coc(-c3ccnc(NCC(F)(F)F)c3)n2)c(CNCCCOCC(C)(C)COCCCc2cccc3c2n(C)c(=O)n3C2CCC(=O)NC2=O)n1` (stereo not drawn) [I-420], which DC50 is on record?
Answer: Its DC50 is over 1 µM.

Question: For `O=C1CCC(n2c(=O)n(CCOCCOCCNC(=O)c3ccc(-n4cc(NC(=O)c5coc(-c6ccnc(NCC7CC7)c6)n5)c(C(F)F)n4)cc3)c3ccccc32)C(=O)N1` (stereo not drawn) [I-251], which DC50 is on record?
Answer: The DC50 was under 0.05 µM.

Question: `CN[C@@H](C)C(=O)N[C@H](C(=O)N1CCC[C@H]1c1nc(C(=O)c2cccc(OCCOCCOCCOCCNCc3ccc(-n4cc(NC(=O)c5coc(-c6ccnc(NCC7CC7)c6)n5)c(C(F)F)n4)cc3)c2)cs1)C1CCCCC1` [I-554] was tested. Which DC50 did it give?
Answer: The DC50 was over 1 µM.
